Entries after “also recorded” stand apart in the source; their conditions may differ. Peptide text beside a SMILES is read from it. * marks the point of attachment. Cbz = O=C(OCc1ccccc1)*

Type in all cases: cell-based, human
One data set has as its system PP2A B subunit. Kind of data set: Western blot of PP2A B subunit in Wnt-activated LNCaP cells. The text has this:
(§1) FIG. 45. Proteasome inhibitors block the suppression of MDM2 phosphorylation and suppress degradation of PP2A B subunit protein in Wnt-activated LNCaP cells. […] There was no change in the PP2A catalytic C subunit levels in Wnt-activated or proteasome-inhibitor treated cells (bottom).
Preparation of cell extracts and western blots. Cells were harvested and protein extracts prepared, quantified and used to prepare Western blots as previously described (Example 1; Yang et al., 2005). Western blots were probed with mouse monoclonal antibodies against human Akt protein, phospho-MDM2 (ser 166), hAR (Santa Cruz Biotechnology Inc., Santa Cruz, Calif.), actin (Sigma Chemical Co., St Louis, Mo.) or with rabbit polyclonal antibodies against phospho-Akt (ser 473) or human MDM2 (Cell Signaling Technology, Beverly, Mass.). Recombinant Wnt-1 protein (HA-tagged) was detected with anti-HA antibody (Clontech Inc., Mountain View, Calif.). Antibody binding to the Western blot was detected as previously described (Yang et al., 2005). Densitometry of films was carried out using a Kodak Image Station 420.
On the technique in general: A western blot detects proteins with antibodies after separation by electrophoresis.

The subject of the next data set is MDM2. Briefly: Western blot of phosphorylated MDM2 in Wnt-activated LNCaP cells. Conditions: β-catenin transfected or 7 days androgen-free LNCaP.
Description: (§2) FIGS. 44A-44B. Suppression of MDM2 expression or direct Akt activity relieves Wnt-mediated suppression of hAR protein expression. FIG. 44A. […] (middle). Actin control (bottom). FIG. 44B. […] Actin control (bottom).
as §1
Cell lines, plasmids and siRNAs. LNCaP, CWR22rv-1, PC-3 and DU145 cells were obtained from ATCC and were passaged in normal (for LNCaP, RPMI 1640 with 10% fetal calf serum and supplements) or androgen-free maintained as previously described (Yang et al., 2005). A defective adenovirus that expresses Wnt-1 protein (Ad-Wnt-1) and control, Lac Z expressing adenovirus (Ad-lac Z) were previously described (Young et al., 1998). These viruses were applied at 20 particles/cell in low serum (2%) medium for 1 h. Expression plasmids containing mutated (stabilized) human β-catenin (Tetsu and McCormick, 1999), dominant negative TCF-4 (Chen et al., 2001) or PCDH-PC cDNA were transfected into cells as previously described (Example 1; Yang et al., 2005). Small interfering (si) RNAs targeting β-catenin or lamin were purchased from Dharmacon Inc. siRNA targeting human MDM2 was purchased from Qiagen Inc (Valencia, Calif.). siRNAs were transfected into cells. Proteasome inhibitors MG132 and lactacystin were purchased from Sigma Chemical Co. (St Louis, Mo.) and were used at 5 (MG 132) or 10 (lactacystin) […] for 12 h prior to cell harvesting. […]
(§3) Preparation of cell extracts and western blots. Cells were harvested and protein extracts prepared, quantified and used to prepare Western blots as previously described (Example 1; Yang et al., 2005). […] Recombinant Wnt-1 protein (HA-tagged) was detected with anti-HA antibody (Clontech Inc., Mountain View, Calif.). Antibody binding to the Western blot was detected as previously described (Yang et al., 2005). […]

The test system of the next data set is hAR protein. Kind of data set: Western blot of hAR protein in Wnt-activated LNCaP cells. Conditions: β-catenin or PCDH-PC transfected or 7 days androgen-free LNCaP.
Description: FIGS. 43A-43C. […] FIG. 43A. […] FIG. 43B.
as §2
Cell lines, plasmids and siRNAs. LNCaP, CWR22rv-1, PC-3 and DU145 cells were obtained from ATCC and were passaged in normal (for LNCaP, RPMI 1640 with 10% fetal calf serum and supplements) or androgen-free maintained as previously described (Yang et al., 2005). A defective adenovirus that expresses Wnt-1 protein (Ad-Wnt-1) and control, Lac Z expressing adenovirus (Ad-lac Z) were previously described (Young et al., 1998). These viruses were applied at 20 particles/cell in low serum (2%) medium for 1 h. Expression plasmids containing mutated (stabilized) human β-catenin (Tetsu and McCormick, 1999), dominant negative TCF-4 (Chen et al., 2001) or PCDH-PC cDNA were transfected into cells as previously described (Example 1; Yang et al., 2005). Small interfering (si) RNAs targeting β-catenin or lamin were purchased from Dharmacon Inc. siRNA targeting human MDM2 was purchased from Qiagen Inc (Valencia, Calif.). siRNAs were transfected into cells. Proteasome inhibitors MG132 and lactacystin were purchased from Sigma Chemical Co. (St Louis, Mo.) and were used at 5 (MG 132) or 10 (lactacystin) […] for 12 h prior to cell harvesting. PI3-kinase inhibitor LY294002 (Sigma Chemical Co.) and Akt Inhibitor IV (compound 5233705, EMD Biosciences Inc., San Diego, Calif.) (Kau et al., 2003) were used at […] concentrations, respectively, for 12 h prior to harvesting cells.
as §3

In a further data set the test system is PCDH-PC mRNA. Kind of data set: RT-PCR of PCDH-PC mRNA in LNCaP cells. The settings on record: 1 mM db-cAMP, 50 ng/ml IL-6 or 5 nM NS-398, 5 days. The text has this:
(§4) FIGS. 3A-3D. […] FIG. 3A. […] FIG. 3B. […] FIG. 3C. […] FIG. 3D.
FIG. 5A. […] FIG. 5B. […] FIG. 5C.

Another data set relates to NSE and chromogranin-A. Briefly: Western blot of NE biomarkers in LNCaP cells treated with NE transdifferentiation inducers. Conditions: 1 mM db-cAMP, 50 ng/ml IL-6 or 5 nM NS-398, 5 days.
Description: as §4

For another data set, the system named is PCDH-PC. Briefly: Western blot of myc-tagged PCDH-PC in LNCaP cells co-transfected with pPCDH-PC-myc and siRNA. Conditions: siRNA 100 nM co-transfected with pPCDH-PC-myc, 48 hrs. The text has this:
FIGS. 4A-4B. siRNAs against PCDH-PC suppress PCDH-PC expression and NE transdifferentiation of LNCaP cells. FIG. 4A. LNCaP cells were transfected with the pPCDH-PC-myc expression vector and were co-transfected with siRNA against human lamin or siRNAs 181, 190 or 208 designed to suppress PCDH-PC expression. A Western blot made against protein extracts from these cells were probed with anti-myc (Top Panel) to identify expression of the 110 kd PCDH myc-tagged protein, anti-β-actin (Middle Panel) or anti-human E-cadherin (Bottom Panel). FIG. 4B. A repeated experiment that includes control LNCaP cells (no transfection) or pCMV-PCDH-myc transfected LNCaP cells co-transfected with siRNAs against lamin or against PCDH-PC (181, 190 or 208). The Western blot was probed for NSE expression (Top Panel) or for β-actin expression (Bottom Panel).
Expression Vectors, Transfection Protocols and Luciferase/β-Glactosidase Assays. PCDH-PC cDNA was inserted into the mammalian expression vectors pcDNA3 (Invitrogen Life Technologies, Inc., Carlsbad, Calif.) or into pCMV-myc (BD Biosciences, Clontech, Inc., Palo Alto, Calif.) so that the PCDH-PC product generated from this vector (pPCDH-PC-myc) has a C-terminal myc tag. An expression vector containing cDNA encoding a mutated (stabilized) form of human β-catenin (Tetsu and McCormick, 1999) was used. A dominant-negative Tcf expression vector used was previously described (Chen et al., 2001). The Tcf-sensitive reporter vector, pTOP and a CMV-promoted β-galactosidase expression vector were obtained from Upstate Biotechnology, Inc. Transfections used for protein or RNA extractions were done in 35 cm^2 dishes with cells plated at 50% density 12-16 hrs prior. […] Luciferase activity in cell extracts was measured using the Luciferase Assay System of Promega, Inc. (Madison, Wis.). β-galactosidase activity was also measured in the same cell extracts using the β-galactosidase Enzyme Assay System of Promega, Inc. All experiments involving luciferase reporter vectors were done in triplicate for each point. […]

As for `CC(C)C[C@@H](C=O)NC(=O)[C@H](CC(C)C)NC(=O)[C@H](CC(C)C)NC(=O)OCc1ccccc1` [MG132] (Cbz-Leu-Leu-Leu-aldehyde), in the data set on PP2A B subunit, the “loss of PP2A regulatory subunit B” value is recorded as “blocked”. In addition, the “Wnt-mediated upregulation of MDM2 phosphorylation” value (“Wnt-mediated upregulation” for short) in the data set with MDM2 was “blocked”. For the same compound, the “Wnt-mediated suppression of hAR protein expression” value (from here on “Wnt-mediated suppression”) with hAR protein is on record as “restored to levels commensurate with elevated hAR mRNA levels”.

With `CC(=O)N[C@@H](CSC(=O)[C@]1([C@@H](O)C(C)C)NC(=O)[C@H](C)[C@@H]1O)C(=O)O` [lactacystin], in the data set on PP2A B subunit, the “loss of PP2A regulatory subunit B” value is “blocked”. The “Wnt-mediated upregulation” value with MDM2 is given as “blocked”. The “Wnt-mediated suppression” value in the data set on hAR protein is “restored to levels commensurate with elevated hAR mRNA levels”.

In the case of interleukin-6 [IL-6], in the data set with PCDH-PC mRNA, the “expression of PCDH-PC mRNA” value was “highly upregulated”. Also, in the data set with NSE and chromogranin-A, the “expression of NSE and chromogranin-A proteins” value is on record as “highly upregulated”.

As to `CS(=O)(=O)Nc1ccc([N+](=O)[O-])cc1OC1CCCCC1` [NS-398], the “expression of PCDH-PC mRNA” value in the data set on PCDH-PC mRNA is “highly upregulated”. Besides, in the data set with NSE and chromogranin-A, the “expression of NSE and chromogranin-A proteins” value is “highly upregulated”.

As for “siRNA #190: 21 bp siRNA targeting PCDH-PC mRNA position 3098-3117, 19 bp core with UU overhangs (SEQ ID NO:6) (AAACATGCAGAATTCTGAATG; listed as DNA, further chemistry not given here)”, the “expression of myc-tagged PCDH-PC polypeptide” value with PCDH-PC is on record as “suppressive effects”.

On to `CC[n+]1c(/C=C/N(C)c2ccccc2)n(-c2ccccc2)c2ccc(-c3nc4ccccc4s3)cc21.[I-]` [compound 5233705], for which the “Wnt-mediated upregulation” value in the data set on MDM2 is listed as “able to suppress; also recorded: relieves”. Moreover, the “Wnt-mediated suppression” value with hAR protein is recorded as “significant elevation; also recorded: relieves”.

Turning to “siRNA #208: 21 bp siRNA targeting PCDH-PC mRNA position 3345-3364, 19 bp core with UU overhangs (SEQ ID NO:7) (AAGAAACTAAGGCAGATGATG; listed as DNA, further chemistry not given here)”, the “expression of myc-tagged PCDH-PC polypeptide” value in the data set with PCDH-PC was “suppressive effects”.

(Values after US20090311716A1, “METHODS TO TREAT OR PREVENT HORMONE-RESISTANT PROSTATE CANCER USING siRNA [sequence] FOR PROTOCADHERIN-PC, OR OTHER INHIBITORS OF PROTOCADHERIN-PC EXPRESSION OR ACTIVITY” (THE TRUSTEES OF COLUMBIA UNIVERSITY IN THE CITY OF NEW YORK, priority 2005, published 2009).)
